These results are taken from patent US11766437B2, “Combination therapies for inhibition of TTK protein kinase” (UNIVERSITY HEALTH NETWORK, priority 2018, dated 2023).

The test system of data set [1] is CT26 mouse colon carcinoma. Description: Treatment of established subcutaneous CT26 tumors in BALB/cJ mice (syngeneic CT26 mouse colon carcinoma model). Format: in vivo. The note with it: CFI-402257 6 mg/kg PO QD 21 days, anti-PD-1 antibody 150 μg IP Days 0, 3, 6, 10. The protocol: (§1) BALB/cJ mice were inoculated subcutaneously with 1×10^6 CT26 cells. The mice were then randomized. Animal weights were monitored daily, and tumor volume was measured three times per week.
[…] was defined as 100×[1−TVf, treated−TVi, treated)/(TVf, control−TVi, control)], where TVf is the average tumor volume at the end of study and TVi is the average tumor volume at the end initiation of treatment. In cases in which tumor regression occurred, percentage of tumor regression was defined as 100×[1−(TVf, treated/TVi, treated)]. At the completion of each study, the mice were killed by an anesthetic overdose, and tumor tissue was removed for further analysis.
Treatments were initiated when tumor volumes reached an average size of ˜60 mm^3. To treat an established tumor, the animals were first assigned into groups, i.e., the control group receiving rat IgG2a […], the group receiving the compound CFI-402257 monotherapy, the group receiving the rat IgG2a anti-PD-1 antibody monotherapy and the group receiving the combination therapy. The compound CFI-402257 and the vehicle [10% (v/v) NMP/40% (v/v) PEG-300/50% (v/v) water for the hydrochloride form; or 80-90% (v/v) PEG-300 or PEG-400 20-10% (v/v) water for the bisphosphate hemihydrate form] were administered by oral gavage (PO), at 6 mg/kg daily (QD) for 21 days. […]

Data set [2] in a line: Animal body weight monitoring / tolerability in CT26 tumor-bearing BALB/cJ mice. The data set is classed as in vivo, mouse. The protocol:
as §1
Treatments were initiated when tumor volumes reached an average size of ˜60 mm^3. To treat an established tumor, the animals were first assigned into groups, i.e., the control group receiving rat IgG2a […], the group receiving the compound CFI-402257 monotherapy, the group receiving the rat IgG2a anti-PD-1 antibody monotherapy and the group receiving the combination therapy. The compound CFI-402257 and the vehicle [10% (v/v) NMP/40% (v/v) PEG-300/50% (v/v) water for the hydrochloride form; or 80-90% (v/v) PEG-300 or PEG-400 20-10% (v/v) water for the bisphosphate hemihydrate form] were administered by oral gavage (PO), at 6 mg/kg daily (QD) for 21 days. The anti-PD-1 antibody or the isotype control were administered by intraperitoneal (IP) injection. 150 μg anti-PD-1 antibody was administered in four doses, i.e., on Days 0, 3, 6 and 10. These treatment studies were carried out in duplicates.

As for `Cc1cc(-c2cnn3c(NC[C@H]4C[C@@](C)(O)C4)cc(Oc4cccnc4)nc23)ccc1C(=O)NC1CC1` [CFI-402257], the complete tumor regression result in data set [1] (first and duplicate experiment together (FIGS. 1 and 2)) was “no instances in which complete regression was observed”. Moreover, in data set [1] (single agent arms, first and duplicate experiment (FIGS. 1B, 1C, 2B, 2C)), the “effect on tumor growth (tumor volume)” value was “tumor growth delay”. Also, in data set [2] (CFI-402257 6 mg/kg PO QD 21 days, anti-PD-1 antibody 150 μg IP Days 0, 3, 6, 10), the “tolerability of the administered dosage” value is recorded as “well-tolerated”. In addition, the “animals recording significant body weight loss” value in data set [2] (first experiment) was “none”. Moreover, in data set [2] (second experiment), the body weight loss is reported as less than 7.5%.
